Test results as given in patent publication US6395727B1, “Method of treating Bulimia Nervosa and related eating disorders by administration of atypical antipsychotic medications” (The Cincinnati Children's Hospital Research Foundation, priority 1999, dated 2002).
Where two headings read alike, the source gives them in different places.

Assays:
[1] = cited from earlier work
[2] = system: Bulimia Nervosa
[3] = some mammals; cited from earlier work
[4] = system: Bulimia Nervosa; assay: therapeutic trial of an antidepressant (fluoxetine) before the risperidone trial, same patient; format: in vivo, human; details: fluoxetine 20 mg PO qam, approximately 4 months
[5] = week four, risperidone 1.5 mg PO at bedtime, fluoxetine 20 mg PO QAM continued

Cc1cc2c(s1)Nc1ccccc1N=C2N1CCN(C)CC1 [Olanzapine, olanzapine]
weight gain ([1]; in some cases): up to 1 pound per week

Cc1nc2n(c(=O)c1CCN1CCC(c3noc4cc(F)ccc34)CC1)CCCC2 [risperidone, 3-[2-[4-(6-fluoro-1,2-benzisoxazol-3-yl)-1-piperidinyl]ethyl]-6,7,8,9-tetrahydro-2-methyl-4H-pyrido[1,2-a]pyrimidin-4-one]
weight gain ([1]; in vivo): minimal | white blood cell count ([1]; in vivo): remains unaffected | cessation of symptoms ([2]; after two weeks, risperidone 0.5 mg PO twice per day, fluoxetine 20 mg PO QAM continued): has not had any cessation of symptoms | improvement in bulimic symptomatology (journal entries) ([2]; conclusion of 8-week study, risperidone 1.5 mg PO QHS plus fluoxetine): 50% | body image scores improved ([2]; conclusion of 8-week study, risperidone 1.5 mg PO QHS plus fluoxetine, self-rating scale): 50% | differences in baseline and final scores of the anxiety and depression scales ([2]; conclusion of 8-week study, risperidone 1.5 mg PO QHS plus fluoxetine, self-rating scales): no appreciable differences | reduction in bulimic symptomatology (patient's journal) [2, 5]: 30% | side effects to the medications [2, 5]: no side effects

OCCOCCN1CCN(C2=Nc3ccccc3Sc3ccccc32)CC1 [Quetiapine, quetiapine]
cataract formation [3]: cause cataract formation

CNCCC(Oc1ccc(C(F)(F)F)cc1)c1ccccc1 (stereo not drawn) [fluoxetine]
bingeing and purging [4]: has not subsided | depressive symptoms (Zung Depression Scores and self-report) [4]: remission of depressive symptoms
